Measurements as given in patent publication US20030171276A1, “Preventives and remedies for chronic hepatitis” (priority 1999, published 2003).

Tested on: recombinant E2 protein binding to CD81 expressed in Jurkat cells
Experiment: Inhibition of binding of recombinant E2 protein to Jurkat cells (FACScan)
Format: cell-based, HCV
Conditions: 1 μg recombinant E2 protein preincubated with 10 μL of 1 mg/mL solution, room temperature 1 hour; FIG. 14
Experimental: An oligopeptide capable of binding to HCV E2 antigen is reacted with the HCV E2 antigen to study whether or not binding of CD81 expressed in Jurkat cells purchased from DAINIPPON PHARMACEUTICAL CO., LTD. to the HCV E2 antigen is inhibited. By the study, whether or not the selected oligopeptide inhibits adhesion of the HCV E2 antigen to CD81-positive cells can be estimated. The inhibitory activity for adhesion of CD81 to the IICV E2 antigen was assayed in accordance with the literature. The concrete description will be given hereinbelow.
The Jurkat cells were prepared in the same manner as in item (1), and suspended in WB so as to have a concentration of 4×10^6 cells/mL, to give a Jurkat cell suspension. […]
Hereinafter, in the same manner as in the item (1) above, the resulting product was reacted with an FITC-labeled anti-mouse IgG1 antibody, and thereafter the reaction mixture was suspended in 0.2 mL of a 10% neutral buffered formalin solution. As to the resulting product, E2 protein bound to Jurkat cells was analyzed by using FACScan.
One microgram of the recombinant E2 protein, and 10 μL of the TAPA148, bLF or bLF443 solution obtained in item (4) above were added to a 6 mm rounded-bottom tube and, and WB was then added thereto, to give 50 μL of a mixture. […] As to the resulting suspension, E2 protein bound to Jurkat cells was analyzed by using FACScan.

Row | Substance | inhibitory action of binding of E2 protein to Jurkat cells
1 | TAPA148: Human CD81-derived peptide, SEQ ID NO: 23 (TFHETLDCCGSSTLTALTTSVLKNNLCPSGSNIISNLFKTDCHQKIDDLTSGK; Synthesized peptide TAPA148 which is derived from human CD81) | inhibitory action of binding of E2 protein
2 | bLF443: Bovine lactoferrin-derived peptide, SEQ ID NO: 24 (LDCVLRPTEGYLAVAVVKKANEGLTWNSLKDKKSCH; Synthesized peptide bLF443 which is derived from bovine lactoferrin) | inhibitory action of binding of the E2 protein
